Measured values reported in patent US4055468A, “Processes for producing physiologically active peptide and its N-acyl derivatives” (priority 1974, dated 1977).
Like-named read-outs stand apart in the source and are kept apart here.

What was measured:
[1] = test system: enzyme decomposing R--Val--Val--X--Ala--X to Val--X--Ala--X; assay: Effect of various inhibitors and metal ions on enzyme activity; type: biochemical, Bacillus sphaericus ATCC 14577
[2] = biological target: Cathepsin D (Homo sapiens, UniProt P07339); assay: anti-cathepsin D activity; type: biochemical
Cathepsin D, sequence (P07339 65-412, species assumed): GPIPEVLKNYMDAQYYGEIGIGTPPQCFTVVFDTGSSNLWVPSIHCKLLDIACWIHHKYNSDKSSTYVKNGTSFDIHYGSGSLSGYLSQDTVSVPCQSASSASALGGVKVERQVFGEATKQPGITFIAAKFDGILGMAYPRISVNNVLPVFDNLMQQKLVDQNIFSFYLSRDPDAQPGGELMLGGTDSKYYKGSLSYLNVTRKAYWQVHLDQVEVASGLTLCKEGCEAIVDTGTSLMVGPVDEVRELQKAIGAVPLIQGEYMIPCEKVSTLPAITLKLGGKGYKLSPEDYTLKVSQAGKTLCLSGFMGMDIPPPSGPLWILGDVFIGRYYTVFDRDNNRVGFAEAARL
Method: (§1) As an example of one of the physiological activities of the peptide and N-acyl derivatives thereof obtained according to the present invention, anti-pepsin and anti-cathepsin D activities and also acute toxicity are given in Table 8. The activities (ID50) were assayed according to the method described above and The Journal of Antibiotics 25 689 (1972). The anti-protease activities of the peptide and N-acyl derivatives thereof are extremely high.

[3] = biological target: T1, pepsin (Sus scrofa, UniProt P00791); assay: Assay of pepsin-inhibitory activity (casein digestion); type: biochemical
T1 construct: purchased SIGMA 2XCRY (grade as printed; no catalogue number)
T1 sequence (P00791 60-385): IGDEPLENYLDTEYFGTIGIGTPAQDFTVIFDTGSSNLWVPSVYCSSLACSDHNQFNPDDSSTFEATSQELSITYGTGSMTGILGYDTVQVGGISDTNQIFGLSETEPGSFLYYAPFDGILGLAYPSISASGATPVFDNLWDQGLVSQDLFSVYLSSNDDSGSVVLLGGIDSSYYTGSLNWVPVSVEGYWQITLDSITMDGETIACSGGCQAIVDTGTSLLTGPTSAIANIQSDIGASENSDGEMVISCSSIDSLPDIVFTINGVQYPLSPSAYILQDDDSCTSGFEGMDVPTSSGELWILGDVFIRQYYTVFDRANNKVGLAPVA
Method: Assay of pepsin-inhibitory activity in this invention was performed according to the following method: A mixture of 1 ml of 0.6%, by weight, highly purified case in dissolved in 0.08 M lactate buffer solution, pH 2.2, 0.7 ml of 0.02M KCl--HCl buffer solution, pH 2.0, and 0.2 ml of solution containing the compound sample was incubated at 37° C for 3 minutes. To this mixture 4 meg of pepsin (SIGMA, 2XCRY) dissolved in 0.1 ml of 0.2M KCl--HCl buffer solution were added. The mixture was incubated at 37° C for 30 minutes. The reaction was stopped by the addition of 2.0 ml of 1.7M perchloric acid. After 1 hour at room temperature, the optical density (a) of the supernatant liquid was read at 280 mμ. An inhibition rate was obtained according to:
where (b) is the optical density at 280 mμ of the tube without the sample solution.
The ID50 is defined as the amount necessary for 50% of the inhibition rate.

[4] = test system: mice; assay: Acute toxicity by abdominal injection; type: in vivo
Method: as §1
Acute toxicity was examined by administering the compounds to the mice by
(§2) The peptide Val--X--Ala--X and its N-acyl derivatives according to this invention have low toxicity; mice, dogs, rats and rabbits tolerated oral administration of more than 2.000 mg/kg. of the compounds, and LD50 of the compounds for animals when administered by intraperitoneal injections are shown in Table 8. Daily 250 mg/kg oral administrations of each of the compounds to rats for 90 days caused no toxicity, and the rats grew at the normal growth rate.

[5] = test system: enzyme decomposing R--Val--Val--X--Ala--X to Val--X--Ala--X; assay: Substrate specificity of the purified enzyme; type: biochemical, Bacillus sphaericus ATCC 14577; details: in words
Method: A medium having the same composition as in Experiment 1 was prepared and 50 ml of the medium was poured into a 500 ml flask. After sterilization at 120° C for 10 minutes, the medium was inoculated with Bacillus sphaericus ATCC 14577 and incubated on a reciprocal shaker (120 r.p.m.) at 30° C for 24 hours to obtain a seed culture. To a 20l jar fermentor was added to 10l of the medium having the same composition, sterilized at 120° C for 15 minutes and inoculated with the seed culture. The cultivation was performed at 30° C with agitation (300 r.p.m.) and aeration (5l/minute).
After 15 hours growth, isovalery-L-valvy-L-valyl-4-amino-3-hydroxy-6-methylheptanoyl-L-alanyl-4-amino-3-hydroxy-6-methylheptanoic acid was added to the culture in a concentration of 50 meg/ml and the cultivation was continued for another 33 hours. Cells were harvested by centrifugation with a Spharpless centrifuge, suspended in 2l of cold 0.01M phosphate buffer, pH 7.0, and disrupted by sonication 20 Kc for 2 minutes. These and the following procedures were carried out under 4° C. A supernatant from the sonicate was heated at 60° C for 10 minutes at pH 7.0. The resulting precipitate was removed by centrifugation and 3.8 g of streptomycin sulfate was added to 1.7l of the supernatant. Precipitated nucleic acid was removed by centrifugation. […]

[6] = Solubility in solvents; type: physicochemical
[7] = test system: rats; assay: Tolerated oral administration; type: in vivo
Method: as §2

[8] = test system: mice; assay: Tolerated oral administration; type: in vivo
Method: as §2

[9] = test system: dogs; assay: Tolerated oral administration; type: in vivo
Method: as §2

[10] = test system: rabbits; assay: Tolerated oral administration; type: in vivo
Method: as §2

[11] = test system: Stomach ulcers in rats; assay: Stress stomach ulcers in rats (method of Takagi et al.); type: in vivo; details: 50 - 200 mg/kg immediately after the stress and once daily for 4 days
Method: Stomach ulcers in rats made by the method described by Takagi et al. in the Japanese Journal of Pharmacology, 18, 9-19, 1958, that is, placing male rats in a cage at 23° C. for 22 hours, are protected or therapeutically treated by the compounds. […] When the dose was 10 mg/kg, the inhibition percentage of the ulcers was 50 - 60%.

[12] = Concentration 2 mM, control 100
[13] = Concentration 10 mM, control 100

Question: Which “Inhibition of the enzyme” value ([1]; 2mM) does the source give for `O[C@H](CS)[C@H](O)CS` (racemic) [Dithiothreitol] here?
Answer: Its value is “Inhibition”.

Question: What about the Relative activity [1, 12] of the same molecule?
Answer: The Relative activity was 0.

Question: With `CC(=O)N[C@H](C(=O)NC(CC(C)C)C(O)CC(=O)N[C@@H](C)C(=O)NC(CC(C)C)C(O)CC(=O)O)C(C)C` (stereo partly drawn) [Acetyl--Val--X--Ala--X, N--acetyl--Val--X--Ala--X] as the molecule, how does the IC50 [2] read?
Answer: Its IC50 is 771 nM.

Question: And the IC50 [3]?
Answer: The IC50 was 56.9 nM.

Question: What about the “Acute toxicity(mg/kg) LD0” value [4] of the same molecule?
Answer: The value was ≥ 4000 mg/kg.

Question: Which IC50 [2] does the source give for `CC(C)C[C@H](NC(=O)[C@H](C)NC(=O)C[C@H](O)[C@H](CC(C)C)NC(=O)[C@@H](NC(=O)c1ccccc1)C(C)C)[C@@H](O)CC(=O)O` [Benzoyl--Val--X--Ala--X, N--benzoyl--Val--X--Ala--X] here?
Answer: The IC50 was 82.4 nM.

Question: And the IC50 [3]?
Answer: Its IC50 is 51.1 nM.

Question: And the “Acute toxicity(mg/kg) LD50” value [4]?
Answer: Its value is 1350 mg/kg.

Question: With `[Ca+2].[Cl-].[Cl-]` [Calcium Choride] as the molecule, how does the increase in activity ([1]; 10 mM) read?
Answer: The increase in activity was 29%.

Question: What about the Relative activity [1, 12] of the same molecule?
Answer: The Relative activity was 110.

Question: What about the Relative activity [1, 13] of the same molecule?
Answer: Its Relative activity is 129.

Question: Which increase in activity ([1]; 2mM) does the source give for `[Cl][Co][Cl]` [Cobalt Chloride] here?
Answer: Its increase in activity is 34%.

Question: And the increase in activity ([1]; 10 mM)?
Answer: Its increase in activity is 66%.

Question: Which Relative activity [1, 12] does the source give for `O=C(O)CN(CCN(CC(=O)O)CC(=O)O)CC(=O)O` [Ethylenediaminetetraacetic Acid] here?
Answer: The Relative activity was 30.

Question: Which “Inhibition of the enzyme” value ([1]; 2mM) does the source give for `[Cl][Hg][Cl]` [HgCl2] here?
Answer: The value was “Inhibition”.

Question: With `CC(C)CC(=O)N[C@H](C(=O)O)C(C)C` [IVA--Val] as the molecule, how does the “susceptibility to the enzyme (hydrolysis)” value [5] read?
Answer: Its value is “not split”.

Question: With `CC(C)C[C@H](NC(=O)[C@H](C)NC(=O)C[C@H](O)[C@H](CC(C)C)NC(=O)[C@@H](NC(=O)C(C)C)C(C)C)[C@@H](O)CC(=O)O` [Isobutyryl--Val--X--Ala--X, N--isobutyryl--Val--X--Ala--X] as the molecule, how does the IC50 [2] read?
Answer: Its IC50 is 489 nM.

Question: For `CC(C)CC(=O)N[C@H](C(=O)N[C@@H](CC(C)C)[C@@H](O)CC(=O)N[C@@H](C)C(=O)N[C@@H](CC(C)C)[C@@H](O)CC(=O)O)C(C)C` [Isovaleryl--Val--X--Ala--X, N--isovaleryl--Val--X--Ala--], which IC50 [2] is on record?
Answer: Its IC50 is 76.7 nM.

Question: What about the “Acute toxicity(mg/kg) LD0” value [4] of the same molecule?
Answer: The value was ≥ 3000 mg/kg.

Question: With `CC(=O)[O-].CC(=O)[O-].[Pb+2]` [Lead Acetate] as the molecule, how does the Relative activity [1] read?
Answer: Its Relative activity is 43.

Question: For `CC(=O)[O-].CC(=O)[O-].[Hg+2]` [Mercuric Acetate], which Relative activity [1] is on record?
Answer: Its Relative activity is 0.

Question: For `O=C(O)CI` [Monoiodoacetic Acid], which Relative activity [1] is on record?
Answer: The Relative activity was 84.

Question: Which “Inhibition of the enzyme” value ([1]; 2mM) does the source give for `O=C1CCC(=O)N1Br` [N-Bromosuccinimide] here?
Answer: The value was “Inhibition”.

Question: And the Relative activity [1, 12]?
Answer: Its Relative activity is 0.

Question: For `[N-]=[N+]=[N-].[Na+]` [NaN3], which Relative activity [1] is on record?
Answer: The Relative activity was 100.

Question: For `CCCCCCCCCCCCCCCC(=O)N[C@H](C(=O)N[C@@H](CC(C)C)[C@@H](O)CC(=O)N[C@@H](C)C(=O)N[C@@H](CC(C)C)[C@@H](O)CC(=O)O)C(C)C` [Palmitoyl--Val--X--Ala--X, N--palmitoyl--Val--X--Ala--X], which IC50 [2] is on record?
Answer: The IC50 was 1480 nM.

Question: With `CC(C)CC(NC(=O)[C@H](C)NC(=O)CC(O)C(CC(C)C)NC(=O)[C@@H](NC(=O)COc1ccccc1)C(C)C)C(O)CC(=O)O` (stereo partly drawn) [Phenoxyacetyl--Val--X--Ala--X, n--phenoxyacetyl--Val--X--Ala--X] as the molecule, how does the IC50 [2] read?
Answer: Its IC50 is 12.6 nM.

Question: And the “Acute toxicity(mg/kg) LD50” value [4]?
Answer: Its value is 1500 mg/kg.

Question: Which IC50 [2] does the source give for `CC(C)C[C@H](NC(=O)[C@H](C)NC(=O)C[C@H](O)[C@H](CC(C)C)NC(=O)[C@@H](NC(=O)C(C)Oc1ccccc1)C(C)C)[C@@H](O)CC(=O)O` (stereo partly drawn) [Phenoxypropionyl--Val--X--Ala--X, N--2--phenoxypropionyl--Val--X--Ala--X] here?
Answer: Its IC50 is 15.4 nM.

Question: And the “Acute toxicity(mg/kg) LD50” value [4]?
Answer: The value was 2100 mg/kg.

Question: Which results are given for `CC(C)C[C@H](NC(=O)[C@H](C)NC(=O)C[C@H](O)[C@H](CC(C)C)NC(=O)[C@@H](N)C(C)C)[C@@H](O)CC(=O)O` [Val--X--Ala--X, L-valyl-4-amino-3-hydroxy-6-methylheptanoyl-L-alanyl-4-amino-3-hydroxy-6-methylheptanoic acid]?
Answer: IC50 [2]: 12900 nM; solubility ([6]; ether, ethyl acetate, and butyl acetate): insoluble; solubility ([6]; methanol, ethanol, pyridine, and acetic acid): soluble; solubility ([6]; n-proponal, n-butanol, n-amyl alcohol and acetone): slightly soluble; Acute toxicity(mg/kg) LD0 [4]: ≥ 5000 mg/kg; tolerated oral administration [7]: more than 2.000 mg/kg; tolerated oral administration [8]: more than 2.000 mg/kg; tolerated oral administration [9]: more than 2.000 mg/kg; tolerated oral administration [10]: more than 2.000 mg/kg

Question: Which results are given for `[Cl-].[Cl-].[Zn+2]` [Zinc Chloride]?
Answer: Relative activity [1, 12]: 66; Relative activity [1, 13]: 44

Question: Which “Inhibition of the enzyme” value ([1]; 2mM) does the source give for `c1cnc2c(c1)ccc1cccnc12` [o-Phenanthroline] here?
Answer: Its value is “Inhibition”.

Question: And the Relative activity [1, 12]?
Answer: The Relative activity was 0.

Question: Which “Inhibition of the enzyme” value [1] does the source give for `O=C(O)c1cc[c]([Hg][Cl])cc1` [p-Chloromercuribenzoate] here?
Answer: Its value is “Inhibition”.

Question: What about the Relative activity [1, 12] of the same molecule?
Answer: Its Relative activity is 2.

Question: Which cure of ulcers [11] does the source give for `CC(C)CC(=O)N[C@H](C(=O)N[C@H](C(=O)N[C@@H](CC(C)C)[C@@H](O)CC(=O)N[C@@H](C)C(=O)N[C@@H](CC(C)C)[C@@H](O)CC(=O)O)C(C)C)C(C)C` [pepstatin] here?
Answer: Its cure of ulcers is “rapid cure of ulcers”.

Question: Which results are given for `OCCS` [β-Mercaptoethanol]?
Answer: Inhibition of the enzyme ([1]; 2mM): Inhibition; Relative activity [1, 12]: 0
